Data from US7273848B2, “Apolipoprotein A-I agonists and their use to treat dyslipidemic disorders” (priority 1997, dated 2007).
Non-standard residues stand in square brackets, D forms with d. Residues, ends and D or L forms follow the SMILES beside them. No end group written: not given here. Aib = CC(C)(N)C(=O)O

The compounds below were run against T1, LCAT (purified from human plasma) (Homo sapiens, UniProt P04180) (assay: LCAT activation assay). Details: LCAT activation as compared with native human ApoA-I (= 100%), equivalent masses.
T1 construct: from tissue; host or cells: human plasma
T1 sequence (P04180 25-440): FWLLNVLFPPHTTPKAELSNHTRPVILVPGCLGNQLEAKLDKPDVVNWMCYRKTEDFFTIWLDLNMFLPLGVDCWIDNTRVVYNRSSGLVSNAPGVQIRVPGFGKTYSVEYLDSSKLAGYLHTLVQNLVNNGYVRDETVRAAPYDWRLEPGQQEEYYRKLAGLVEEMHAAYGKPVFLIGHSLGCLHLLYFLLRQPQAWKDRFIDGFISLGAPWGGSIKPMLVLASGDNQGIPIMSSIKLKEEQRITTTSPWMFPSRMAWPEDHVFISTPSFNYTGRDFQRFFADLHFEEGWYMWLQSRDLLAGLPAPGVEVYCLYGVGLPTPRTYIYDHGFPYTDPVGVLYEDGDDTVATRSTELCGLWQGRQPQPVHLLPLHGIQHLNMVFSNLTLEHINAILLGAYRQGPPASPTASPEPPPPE
Type: biochemical
How it was run: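 Substrate SUVs of EPC or POPC with 14C-cholesterol (20:1 molar ratio), in 10 mM Tris, 0.14 M NaCl, 1 mM EDTA, pH 7.4, were preincubated with peptide or equal mass of plasma ApoA-I. Reaction started with human plasma LCAT; activation was measured as cholesterol-to-ester conversion relative to ApoA-I (100%).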

Row | Compound | ACTIVITY (%) LCAT [%]
1 | CC(C)C[C@H](NC(=O)[C@H](C)NC(=O)[C@H](CCC(=O)O)NC(=O)C(C)(C)NC(=O)[C@H](CC(C)C)NC(=O)[C@H](CCC(=O)O)NC(=O)[C@H](CC(N)=O)NC(=O)[C@H](CC(C)C)NC(=O)[C@H](CCCCN)NC(=O)[C@H](CCC(=O)O)NC(=O)[C@H](CCCNC(=N)N)NC(=O)[C@H](Cc1ccccc1)NC(=O)[C@H](CCC(=O)O)NC(=O)[C@H](CC(=O)O)NC(=O)[C@H](CC(C)C)NC(=O)[C@@H](NC(=O)[C@@H]1CCCN1)C(C)C)C(=O)N[C@@H](CCCCN)C(=O)N[C@@H](CCC(N)=O)C(=O)N[C@@H](CCCCN)C(=O)N[C@@H](CC(C)C)C(=O)N[C@@H](CCCCN)C(=O)O [compound 71, PVLDEFREKLNELXEALKQKLK] (H-PVLDEFREKLNEL[Aib]EALKQKLK-OH) | 11
2 | PVLDLFRELLNELLEALKQKKK [compound 56] | 18
3 | CC(C)C[C@H](NC(=O)[C@H](C)NC(=O)[C@H](CCC(=O)O)NC(=O)[C@H](CC(C)C)NC(=O)C(C)(C)NC(=O)[C@H](CCC(=O)O)NC(=O)[C@H](CC(N)=O)NC(=O)[C@H](CC(C)C)NC(=O)[C@H](CCCCN)NC(=O)[C@H](CCC(=O)O)NC(=O)[C@H](CCCNC(=N)N)NC(=O)[C@H](Cc1ccccc1)NC(=O)[C@H](CCC(=O)O)NC(=O)[C@H](CC(=O)O)NC(=O)[C@H](CC(C)C)NC(=O)[C@H](Cc1c[nH]c2ccccc12)NC(=O)[C@@H]1CCCN1)C(=O)N[C@@H](CCCCN)C(=O)N[C@@H](CCC(N)=O)C(=O)N[C@@H](CCCCN)C(=O)N[C@@H](CC(C)C)C(=O)N[C@@H](CCCCN)C(=O)O [compound 64, PWLDEFREKLNEXLEALKQKLK] (H-PWLDEFREKLNE[Aib]LEALKQKLK-OH) | 15
4 | CC(C)C[C@H](NC(=O)[C@H](C)NC(=O)[C@H](CCC(=O)O)NC(=O)[C@H](CC(C)C)NC(=O)C(C)(C)NC(=O)[C@H](CCC(=O)O)NC(=O)[C@H](CC(N)=O)NC(=O)[C@H](Cc1ccc(O)cc1)NC(=O)[C@H](CC(C)C)NC(=O)[C@H](CCC(=O)O)NC(=O)[C@H](CCCNC(=N)N)NC(=O)[C@H](Cc1ccccc1)NC(=O)[C@H](CCC(=O)O)NC(=O)[C@H](CC(=O)O)NC(=O)[C@H](CC(C)C)NC(=O)[C@@H](NC(=O)[C@@H]1CCCN1)C(C)C)C(=O)N[C@@H](CCCCN)C(=O)N[C@@H](CCC(N)=O)C(=O)N[C@@H](CCCCN)C(=O)N[C@@H](CC(C)C)C(=O)N[C@@H](CCCCN)C(=O)O [compound 92, PVLDEFRELYNEXLEALKQKLK] (H-PVLDEFRELYNE[Aib]LEALKQKLK-OH) | 5
5 | PVLELFLNLLERLLDAWQKKLK [compound 184] | 4
6 | PVLDLFRNLLEELLKALEQKLK [compound 57] | 18
7 | Ac-DVLDLFRELLEELKQKLK-NH2 [compound 221] | 12
8 | PVLDLFRELGNELLEALKQKLK [peptide 9] | 83
9 | PVLELFLNLLERLLDWLQKKLK [compound 158] | 30
10 | PVLELFENLLERLLELLNKKLK [compound 175] | 13
11 | Ac-PVLDLFRELLNELLQKLK-NH2 [compound 218] | 29
12 | Ac-PVLELFKELLEELKQKLK-NH2 [compound 195] | 87
13 | PVLELFENLLEKLLDALQKKLK [compound 169] | 17
14 | CC(C)C[C@H](NC(=O)[C@H](C)NC(=O)[C@H](CCC(=O)O)NC(=O)[C@H](CC(C)C)NC(=O)C(C)(C)NC(=O)[C@H](CCC(=O)O)NC(=O)[C@H](CC(N)=O)NC(=O)[C@H](CC(C)C)NC(=O)[C@H](CCCCN)NC(=O)[C@H](CCC(=O)O)NC(=O)[C@H](CCCNC(=N)N)NC(=O)[C@H](Cc1ccccc1)NC(=O)[C@H](CCC(=O)O)NC(=O)[C@H](CC(=O)O)NC(=O)[C@H](CC(C)C)NC(=O)[C@@H](NC(=O)[C@@H]1CCCN1)C(C)C)C(=O)N[C@@H](CCC(=O)O)C(=O)N[C@@H](CCC(N)=O)C(=O)N[C@@H](CCCCN)C(=O)N[C@@H](CC(C)C)C(=O)N[C@@H](CCCCN)C(=O)O [compound 118, PVLDEFREKLNEXLEALEQKLK] (H-PVLDEFREKLNE[Aib]LEALEQKLK-OH) | 0
15 | CC(C)C[C@H](NC(=O)[C@H](C)NC(=O)[C@H](CCC(=O)O)NC(=O)[C@H](CC(C)C)NC(=O)C(C)(C)NC(=O)[C@H](CCC(=O)O)NC(=O)[C@H](CC(N)=O)NC(=O)[C@H](CC(C)C)NC(=O)[C@H](CC(C)C)NC(=O)[C@H](CCC(=O)O)NC(=O)[C@H](CCCNC(=N)N)NC(=O)[C@H](Cc1ccccc1)NC(=O)[C@H](CCCCN)NC(=O)[C@H](CC(=O)O)NC(=O)[C@H](CC(C)C)NC(=O)[C@@H](NC(=O)[C@@H]1CCCN1)C(C)C)C(=O)N[C@@H](CCCCN)C(=O)N[C@@H](CCC(N)=O)C(=O)N[C@@H](CCCCN)C(=O)N[C@@H](CC(C)C)C(=O)N[C@@H](CCCCN)C(=O)O [compound 88, PVLDKFRELLNEXLEALKQKLK] (H-PVLDKFRELLNE[Aib]LEALKQKLK-OH) | 7
16 | CC(C)C[C@H](NC(=O)[C@H](CCCCN)NC(=O)[C@H](CCC(N)=O)NC(=O)[C@H](CCCCN)NC(=O)[C@H](CC(C)C)NC(=O)C(C)(C)NC(=O)[C@H](CCC(=O)O)NC(=O)[C@H](CC(C)C)NC(=O)[C@H](CCC(=O)O)NC(=O)[C@H](CCC(=O)O)NC(=O)[C@H](CC(N)=O)NC(=O)[C@H](CC(C)C)NC(=O)[C@H](CCCCN)NC(=O)[C@H](CCC(=O)O)NC(=O)[C@H](CCCNC(=N)N)NC(=O)[C@H](Cc1ccccc1)NC(=O)[C@H](CCC(=O)O)NC(=O)[C@H](CC(=O)O)NC(=O)[C@H](CC(C)C)NC(=O)[C@@H](NC(=O)[C@@H]1CCCN1)C(C)C)C(=O)N[C@@H](CCCCN)C(=O)O [compound 120, PVLDEFREKLNEELEXLKQKLK] (H-PVLDEFREKLNEELE[Aib]LKQKLK-OH) | 0
17 | PVLDLLRELLNELLEALKQKLK [compound 16] | 59
18 | PVLELFDNLLEKLLEALQKKLR [compound 178] | 9
19 | PVLELFENGLERLLDALQKKLK [compound 167] | 18
20 | CC(C)C[C@H](NC(=O)[C@H](C)NC(=O)[C@H](CCC(=O)O)NC(=O)[C@H](CC(C)C)NC(=O)C(C)(C)NC(=O)[C@H](CCC(=O)O)NC(=O)[C@H](CC(N)=O)NC(=O)[C@H](CC(C)C)NC(=O)[C@H](CCCCN)NC(=O)[C@H](CCC(=O)O)NC(=O)[C@H](CCCNC(=N)N)NC(=O)[C@H](Cc1ccccc1)NC(=O)[C@H](CCC(=O)O)NC(=O)[C@H](CC(=O)O)NC(=O)[C@@H](N)CC(C)C)C(=O)N[C@@H](CCCCN)C(=O)N[C@@H](CCC(N)=O)C(=O)N[C@@H](CCCCN)C(=O)N[C@@H](CC(C)C)C(=O)N[C@@H](CCCCN)C(=O)O [compound 82, ~~LDEFREKLNEXLEALKQKLK] (H-LDEFREKLNE[Aib]LEALKQKLK-OH) | 8
21 | CC(C)C[C@H](NC(=O)[C@H](CCCCN)NC(=O)[C@H](CCC(N)=O)NC(=O)[C@H](CCCCN)NC(=O)[C@H](CC(C)C)NC(=O)[C@H](C)NC(=O)[C@H](CCC(=O)O)NC(=O)[C@H](CC(C)C)NC(=O)C(C)(C)NC(=O)[C@H](CCC(=O)O)NC(=O)[C@H](CC(N)=O)NC(=O)[C@H](CC(C)C)NC(=O)[C@H](CCCCN)NC(=O)[C@H](CCC(=O)O)NC(=O)[C@H](CCCNC(=N)N)NC(=O)[C@H](Cc1ccccc1)NC(=O)[C@H](CCC(=O)O)NC(=O)[C@H](CC(=O)O)NC(=O)[C@H](CC(C)C)NC(=O)[C@@H](NC(=O)[C@@H]1CCCN1)C(C)C)C(=O)O [compound 58, PVLDEFREKLNEXLEALKQKL~] (H-PVLDEFREKLNE[Aib]LEALKQKL-OH) | 18
22 | PVLDAFRELLEALLQLKK [compound 222] | 8
23 | CC(C)C[C@H](NC(=O)[C@H](C)NC(=O)[C@H](CCC(=O)O)NC(=O)[C@H](CC(C)C)NC(=O)C(C)(C)NC(=O)[C@H](CCC(=O)O)NC(=O)[C@H](CC(N)=O)NC(=O)[C@H](CC(C)C)NC(=O)[C@H](CCCCN)NC(=O)[C@H](CCCCN)NC(=O)[C@H](CCCNC(=N)N)NC(=O)[C@H](Cc1ccccc1)NC(=O)[C@H](CCC(=O)O)NC(=O)[C@H](CC(=O)O)NC(=O)[C@H](CC(C)C)NC(=O)[C@@H](NC(=O)[C@@H]1CCCN1)C(C)C)C(=O)N[C@@H](CCCCN)C(=O)N[C@@H](CCC(N)=O)C(=O)N[C@@H](CCCCN)C(=O)N[C@@H](CC(C)C)C(=O)N[C@@H](CCCCN)C(=O)O [compound 69, PVLDEFRKKLNEXLEALKQKLK] (H-PVLDEFRKKLNE[Aib]LEALKQKLK-OH) | 13
24 | CC(C)C[C@H](NC(=O)[C@H](C)NC(=O)[C@H](CCC(=O)O)NC(=O)[C@H](CC(C)C)NC(=O)C(C)(C)NC(=O)[C@H](CCC(=O)O)NC(=O)[C@H](CC(N)=O)NC(=O)[C@H](CC(C)C)NC(=O)[C@H](CCCCN)NC(=O)[C@H](Cc1c[nH]c2ccccc12)NC(=O)[C@H](CCCNC(=N)N)NC(=O)[C@H](Cc1ccccc1)NC(=O)[C@H](CCC(=O)O)NC(=O)[C@H](CC(=O)O)NC(=O)[C@H](CC(C)C)NC(=O)[C@@H](NC(=O)[C@@H]1CCCN1)C(C)C)C(=O)N[C@@H](CCCCN)C(=O)N[C@@H](CCC(N)=O)C(=O)N[C@@H](CCCCN)C(=O)N[C@@H](CC(C)C)C(=O)N[C@@H](CCCCN)C(=O)O [compound 61, PVLDEFRWKLNEXLEALKQKLK] (H-PVLDEFRWKLNE[Aib]LEALKQKLK-OH) | 16
